Values of other authors, collected in US20260284189A1, “TREATMENT OF NON-SMALL CELL LUNG CANCER” (ASTRAZENECA AB, priority 2023, published 2026).

Test system: PD-L1-mediated suppression of human T-cell activation
Settings: in vitro; cited from earlier work

Substance: Durvalumab: antibody that selectively binds PD-L1 and blocks binding of PD-L1 to PD-1 and CD80; arm given with platinum-based chemotherapy before surgery
- PD-L1-mediated suppression of human T-cell activation: can relieve PD-L1-mediated suppression of human T-cell activation in vitro
